SMILES strings stand for the structures. Where two headings read alike, the source gives them in different places.

We go through 23 compounds from patent publication US12527775B2 (priority 2020, dated 2026).

In data set [1] the target is human recombinant 5-HT2A receptor (Homo sapiens (Human), UniProt P28223). Kind of data set: biochemical. Format: binding. The settings on record: [3H]-Ketanserin 3 nmol/L, Jump-In HEK cell membrane. The protocol:
Test Example 1: 5-HT2A Receptor Binding Inhibition Test
(Each Experimental Condition)
Cell membrane: 15 μg of Jump-In HEK cell membrane (expressing human recombinant 5-HT2A receptor) per well
Assay buffer: Tris-HCl 50 mmol/L (pH 7.4) containing NaCl 120 mmol/L, MgCl2·6H2O 1 mmol/L, KCl 5 mmol/L, 0.1% BSA and CaCl2 2 mmol/L
Radioactive ligand: [^3H]-Ketanserin with a final concentration of 3 nmol/L
(§1) Non-specific ligand: Serotonin HCl with a final concentration of 500 μmol/L
(§2) The Kd value was calculated when the lot of cell membrane was changed. […] The radioactive ligand solution was serially diluted from 16 nM at a 2-fold ratio and the count was confirmed with a liquid scintillator. […] After that, filtration was performed with Cell harvester (PerkinElmer). The radioactive ligand solution was dispensed into an empty well of the GF/B UniFilter plate at 10 μL/well. […] The GF/B UniFilter plate was allowed to stand overnight at room temperature. […] The Saturation curve was drawn from the measured value, and the Kd value was calculated from the slope of the Scatchard Plot.
(§3) (Binding Test of the Compound According to the Present Invention)
(§4) After that, filtration was performed with Cell harvester (PerkinElmer).

Data set [2] has as its target human recombinant 5-HT2C receptor (Homo sapiens (Human), UniProt P28335). Kind of data set: biochemical. Format: binding. Here is the method: Test Example 2: 5-HT2C Receptor Binding Inhibition Test
(Each experimental condition)
Cell membrane: 0.5 μg of Jump-In HEK cell membrane (expressing human recombinant 5-HT2C receptor) per well
Assay buffer: Tris-HCl 50 mmol/L (pH 7.4) containing NaCl 120 mmol/L, MgCl2·6H2O 1 mmol/L, KCl 5 mmol/L, 0.1% BSA and CaCl2) 2 mmol/L
Radioactive ligand: [^3H]-Mesulergine with a final concentration of 1 nmol/L
as §1, §2, §3, §4

The next data set concerns the target hERG channel (IKr) (Homo sapiens (Human), UniProt Q12809). The data set is described as follows: hERG test (automated whole cell patch clamp, IKr). Format: cell-based. The settings on record: CHO cells expressing hERG channel, pH 7.4, compound concentration of 3 μmol/L, read-out: hERG inhibition rate (tail peak current IKr). The text has this: Test Example 3: hERG Test
For the purpose of assessing risk of an electrocardiogram QT interval prolongation of the compound according to the present invention, effects of the compound according to the present invention on delayed rectifier K^+ current (IKr), which plays an important role in the ventricular repolarization process, was studied using CHO cells expressing human ether-a-go-go related gene (hERG) channel.
After a cell was retained at a membrane potential of −80 mV by whole cell patch clamp method using an automated patch clamp system (QPatch; Sophion Bioscience A/S) and gave a leak potential of −50 mV, IKr induced by depolarization pulse stimulation at +20 mV for 2 seconds, and further, repolarization pulse stimulation at −50 mV for 2 seconds, was recorded. A vehicle, which was the 0.1% dimethyl sulfoxide solution in extracellular solution (NaCl: 145 mmol/L, KCl: 4 mmol/L, CaCl2: 2 mmol/L, MgCl2: 1 mmol/L, glucose:10 mmol/L, HEPES (4-(2-hydroxyethyl)-1-piperazineethanesulfonic acid): 10 mmol/L, pH7.4), or the compound according to the present invention had been dissolved at an objective concentration in the extracellular solution, each of the extracellular solution was applied to the cell at room temperature for 15 minutes or more. From the recording IKr, an absolute value of the tail peak current was measured based on the current value at the resting membrane potential using analysis software (QPatch Assay software; Sophion Bioscience A/S). The % inhibition of the tail peak current after application of the compound according to the present invention relative to the tail peak current after application of the vehicle was calculated, and further correction was performed using the inhibition rate result of the negative control to assess influence of the compound according to the present invention on IKr.
(In general: Block of hERG is tested as a sign of cardiac risk.)

The mark [3] stands for this setting: class symbols, read-out: h-5-HT2A Ki.
[4] abbreviates: human serotonin 5-HT2C receptor binding, [3H]-Mesulergine, read-out: h-5-HT2C Ki.
Setting [5] is: read-out: human serotonin 5-HT2A receptor binding activity, Ki.
[6] abbreviates: [3H]-Mesulergine 1 nmol/L, Jump-In HEK cell membrane, read-out: human serotonin 5-HT2C receptor binding activity, Ki.

Sequence of human recombinant 5-HT2C receptor (P28335 whole entry, looked up): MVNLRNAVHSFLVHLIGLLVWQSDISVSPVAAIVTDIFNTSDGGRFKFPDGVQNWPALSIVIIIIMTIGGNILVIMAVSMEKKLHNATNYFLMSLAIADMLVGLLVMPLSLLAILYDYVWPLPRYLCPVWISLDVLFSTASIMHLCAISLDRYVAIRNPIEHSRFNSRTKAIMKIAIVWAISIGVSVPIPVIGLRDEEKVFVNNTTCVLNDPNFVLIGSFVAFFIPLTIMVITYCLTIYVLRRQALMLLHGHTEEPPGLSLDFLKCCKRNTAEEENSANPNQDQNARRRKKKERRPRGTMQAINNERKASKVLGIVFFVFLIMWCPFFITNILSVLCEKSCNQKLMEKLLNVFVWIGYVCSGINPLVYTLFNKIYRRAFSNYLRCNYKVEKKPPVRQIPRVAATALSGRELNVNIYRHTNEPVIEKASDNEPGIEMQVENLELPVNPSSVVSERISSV
Sequence of hERG channel (IKr) (Q12809 whole entry): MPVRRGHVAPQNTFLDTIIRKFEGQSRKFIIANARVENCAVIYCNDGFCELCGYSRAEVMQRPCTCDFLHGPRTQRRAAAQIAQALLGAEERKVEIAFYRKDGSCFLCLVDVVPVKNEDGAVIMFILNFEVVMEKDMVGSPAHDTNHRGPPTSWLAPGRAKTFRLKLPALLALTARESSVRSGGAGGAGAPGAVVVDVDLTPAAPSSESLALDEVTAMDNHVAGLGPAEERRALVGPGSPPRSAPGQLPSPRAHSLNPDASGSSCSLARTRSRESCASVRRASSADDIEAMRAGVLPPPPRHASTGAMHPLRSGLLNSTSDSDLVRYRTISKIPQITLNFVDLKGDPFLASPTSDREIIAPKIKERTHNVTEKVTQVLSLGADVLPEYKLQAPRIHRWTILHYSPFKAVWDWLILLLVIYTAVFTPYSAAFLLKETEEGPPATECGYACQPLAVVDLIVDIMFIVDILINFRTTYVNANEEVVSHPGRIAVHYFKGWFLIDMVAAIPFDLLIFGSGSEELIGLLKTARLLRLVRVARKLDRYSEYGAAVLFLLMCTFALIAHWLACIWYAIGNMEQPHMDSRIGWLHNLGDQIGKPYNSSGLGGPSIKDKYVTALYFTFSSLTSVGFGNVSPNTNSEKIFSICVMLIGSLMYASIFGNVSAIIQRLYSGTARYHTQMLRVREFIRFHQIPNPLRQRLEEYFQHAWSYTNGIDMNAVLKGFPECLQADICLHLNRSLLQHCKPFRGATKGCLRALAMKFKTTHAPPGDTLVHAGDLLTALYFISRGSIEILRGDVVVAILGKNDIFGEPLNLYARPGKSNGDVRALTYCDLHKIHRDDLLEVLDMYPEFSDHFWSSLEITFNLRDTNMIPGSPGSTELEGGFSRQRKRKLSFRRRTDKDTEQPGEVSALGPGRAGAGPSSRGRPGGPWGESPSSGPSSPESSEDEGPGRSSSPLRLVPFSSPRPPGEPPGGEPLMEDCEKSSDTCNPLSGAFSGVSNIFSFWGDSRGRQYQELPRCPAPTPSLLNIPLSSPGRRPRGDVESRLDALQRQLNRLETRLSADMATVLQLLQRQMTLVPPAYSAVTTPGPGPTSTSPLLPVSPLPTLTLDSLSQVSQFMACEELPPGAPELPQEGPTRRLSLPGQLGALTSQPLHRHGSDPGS

For the compound `CC(C)CNc1ccc(CNC(=O)N(Cc2ccc(F)cn2)C2CCN(C)CC2)cc1` [Compound I-112], the inhibitory constant (Ki) in data set [1] (setting [3]) and in data set [2] (setting [4]) was under 10 nM in each case.
Turning to `CN1CCC(N(Cc2ccc(F)cn2)C(=O)NCc2ccc(OC3CC3)cc2)CC1` [Compound I-113], the inhibition constant (Ki) (in general, the equilibrium dissociation constant of an inhibitor or competing ligand from its target) is under 10 nM in data set [1] (setting [3]) and 10 to 100 nM in data set [2] (setting [4]).
In the same order, the values of `CC(C)COc1ccc(CNC(=O)N(Cc2ccc(F)cn2)[C@H]2CCNC[C@H]2F)cc1` [Compound I-115] are under 10 nM and under 10 nM.
Consider `CCc1ccc(CNC(=O)N(Cc2ccc(F)cn2)C2CCN(C)CC2)cc1` [Compound I-116], for which the Ki in data set [1] (setting [5]) was 1.45 nM; in data set [2] (setting [6]) it was 12.2 nM.
As for `CN1CCC(N(Cc2ccc(F)cn2)C(=O)NCc2ccc(OCC(F)(F)C(F)F)cc2)CC1` [Compound I-117], the Ki in data set [1] (setting [3]) and in data set [2] (setting [4]) was under 10 nM each time.
As for `CC(C)COc1ccc(CNC(=O)N(Cc2ccn(C(F)F)n2)C2CCN(C)CC2)cc1` [Compound I-118], the values for the Ki in data set [1] (setting [3]) and in data set [2] (setting [4]) were under 10 nM and 10 to 100 nM, respectively.
On to `CCCOc1ccc(CNC(=O)N(Cc2ccc(F)cn2)[C@H]2CCNC[C@H]2F)cc1` [Compound I-119], for which the inhibitory constant (Ki) in data set [1] (setting [3]) and in data set [2] (setting [4]) was under 10 nM in each case.
As to `Cc1ccc(CNC(=O)N(Cc2ccc(F)cn2)[C@H]2CCN(C)CC23CC3)cc1` [Compound I-120], the Ki in data set [1] (setting [3]) and in data set [2] (setting [4]) was under 10 nM throughout.
For `CN1CCC(N(Cc2ccc(F)cn2)C(=O)NCc2ccc(N(C)C)cc2)CC1` [Compound I-121], the Ki in data set [1] (setting [3]) was 10 to 100 nM; in data set [2] (setting [4]), over 100 nM.
The like results for `CCCOc1ccc(CNC(=O)N(Cc2ccn(C)n2)[C@H]2CCNC[C@H]2F)cc1` [Compound I-122] were, in that order, under 10 nM and 10 to 100 nM.
The like results for `CCCOc1ccc(CNC(=O)N(Cc2cc(C)n(C)n2)[C@H]2CCNC[C@H]2F)cc1` [Compound I-123] were, in that order, under 10 nM and 10 to 100 nM.
Regarding `CC(C)COc1ccc(CNC(=O)N(Cc2ccn(C)c2)[C@H]2CCNC[C@H]2F)cc1` [Compound I-124], the inhibition constant (Ki) is 0.69 nM in data set [1] (setting [5]) and 2.22 nM in data set [2] (setting [6]).
Regarding `CN1CCC(N(Cc2ccc(F)cn2)C(=O)NCc2ccc(C3CC3)cc2)CC1` [Compound I-125], the Ki was under 10 nM in data set [1] (setting [3]) and 10 to 100 nM in data set [2] (setting [4]).
Consider `CCCOc1ccc(CNC(=O)N(Cc2cc(C)n(C)n2)[C@H]2CCN(C)CC23CC3)cc1` [Compound I-126], for which the Ki in data set [1] (setting [5]) came out at 1.92 nM; in data set [2] (setting [6]), 1.09 nM.
Consider `CCCOc1ccc(CNC(=O)N(Cc2cc(C)n(C)n2)[C@@H]2CCN(C)CC23CC3)cc1` [Compound I-127], for which the Ki in data set [1] (setting [3]) and in data set [2] (setting [4]) was over 100 nM in each case.
In the case of `CC(C)CNc1ccc(CNC(=O)N(Cc2ccc(F)cn2)[C@H]2CCNC[C@H]2F)cc1` [Compound I-129], the inhibition (usually the drop in the measured response relative to a control, in per cent) at 3 μmol/L at hERG channel (IKr) turned out to be 31.4%. In addition, the Ki in data set [1] (setting [5]) is 0.85 nM; in data set [2] (setting [6]) it was 1.51 nM.
On to `COCc1ccc(CNC(=O)N(Cc2ccc(C)cn2)C2CCN(C)CC2)cc1` [Compound I-130], for which the inhibition constant (Ki) was determined as 15.3 nM in data set [1] (setting [5]) and 348 nM in data set [2] (setting [6]).
Consider `Cc1cc(CN(C(=O)NCc2ccc(OCC(C)C)cc2)[C@H]2CCNC[C@H]2F)nn1C` [Compound I-133], for which the inhibition at 3 μmol/L on hERG channel (IKr) was 6.6%.
For the compound `CCCOc1ccc(CNC(=O)N(Cc2ccn(C)c2)[C@H]2CCNC[C@H]2F)cc1` [Compound I-134], at hERG channel (IKr), the inhibition at 3 μmol/L came out at 31.2%. The figures for the Ki in data set [1] (setting [5]) and in data set [2] (setting [6]) were 0.475 nM and 3.2 nM, respectively.
Take `CCCOc1ccc(CNC(=O)N(Cc2cc(C)n(C)n2)[C@H]2CCN(C)C[C@H]2F)cc1` [Compound I-139]: the inhibition at 3 μmol/L on hERG channel (IKr) was 14.2%. For the same compound, the Ki in data set [1] (setting [5]) came to 2.93 nM; in data set [2] (setting [6]) it was 11.1 nM.
As for `CCCOc1ccc(CNC(=O)N(Cc2ccn(C)c2)[C@H]2CCN(C)C[C@H]2F)cc1` [Compound I-141], the inhibition at 3 μmol/L at hERG channel (IKr) was found to be 49.3%.
On to `CC(C)COc1ccc(CNC(=O)N(Cc2cc(CF)n(C)n2)[C@H]2CCN(C)C[C@H]2F)cc1` [Compound I-146], for which the Ki turned out to be 1.94 nM in data set [1] (setting [5]) and 4.96 nM in data set [2] (setting [6]).
In the same order, the values of `CC(C)CN(C)c1ccc(CNC(=O)N(Cc2ccc(F)cn2)[C@H]2CCN(C)C[C@H]2F)cc1` [Compound I-147] are 0.758 nM and 2.12 nM.
